Key:
Stat3 [1] = target: Stat3 (Homo sapiens, UniProt P40763); experiment: IL-6-induced nuclear translocation of Stat3 in DU145 cells (immunofluorescence); assay type: cell-based; parameters: endogenous in cells; host or cells: DU145; settings: 2 hours pretreatment, 10 nmol/L IL-6 30 minutes
Protocol: DU145 prostate cancer cells were pretreated with N6BAP or vehicle (DMSO) for 2 hours and then stimulated with 10 nmol/L IL-6 for 30 minutes. Cells were fixed with 100% methanol for 15 min and subsequently permeabilized with 0.1% Triton X-100 in PBS (pH 7.4). After blocking with 2% bovine serum albumin in PBS, cells were incubated with an antibody specific for Stat3 at 4° C. for 2 hours. Cells were then washed with PBS and incubated with FITC-conjugated secondary antibody (Jackson ImmunoResearch) at room temperature for 1 hour. The images were taken by using an inverted fluorescence microscopy (Carl Zeiss).

Stat3 [2] = experiment: Nuclear Stat3 immunostaining in CWR22Rv1 xenograft tumors; assay type: in vivo, nude mice; settings: CWR22Rv1 xenograft tumors of Example 10
Protocol: Nuclear active Stat5a/b or nuclear active Stat3 were analyzed by immunostaining with an anti-Stat5a/b or anti-Stat3 antibody, respectively, and biotin-streptavidin amplified peroxidase antiperoxidase immunodetection of paraffin-embedded sections of the prostate xenograft tumors of Example 10. Anti-Stat5a/b (mAb) (55 ng/ml) (Santa Cruz Biotechnology) was used as the primary antibody and antigen-antibody complexes were detected by appropriate biotinylated goat secondary antibodies (Biogenex Laboratories) followed by streptavidin-horseradish-peroxidase complex, and 3,3′-diaminobenzidine as chromogen and Mayer hematoxylin as counterstain. Three microscopic views of each tumor (ten tumors per each treatment group) were photographed at 20× magnification. Nuclear Stat5 and Stat3 indexes were determined by counting epithelial cells with nuclear Stat5a/b immunostaining-positive cells per total number of epithelial cells per view. The counts were averaged within the tumors in a given treatment group.

[3] = tested on: CAPAN human pancreatic cancer cells; experiment: Cell viability assay, CAPAN; assay type: cell-based
Protocol: (§1) CWR22Rv1 prostate cancer cells were treated with N6BAP or the control compound C5 (Ctrl) at 25 μM concentration or vehicle for 24 h. Following trypan blue exclusion, the attached viable vs. de-attached dead cells were counted. […] The bars indicate mean±SD of triplicate wells. In another assay, CWR22Rv1, LNCaP and DU145 cells were treated with N6BAP, the control compound C5 (Ctrl) or vehicle at indicated concentrations. The fraction of alive cells was determined by MTS ([…]) metabolic activity assay (CellTiter 96® AQueous Assay kit). The results are shown in FIGS. 9C, 9D and 9E, respectively.
The procedure of Example 9 was followed, substituting cells of the following solid tumor cell lines for the cells treated in Example 9: A549 human lung cancer cells, CAPAN human pancreatic cancer cells, T47D human breast cancer cells, […], A2058 human melanoma and COS-7 monkey fibroblast cell lines.

Stat5a/b = experiment: Electrophoresis mobility shift assay (EMSA) of Stat5a/b binding to DNA, nuclear extracts of transfected COS-7 cells; assay type: cell-based; settings: 2 hours pretreatment, 10 nmol/L Prl 30 minutes
Protocol: COS-7 cells were transfected with plasmids expressing Stat5a (pStat5a) and PrlR (pPrlR) using FuGENE6. After 24 hours, the cells were starved in serum-free medium for 16 hours and then pretreated with N6BAP or the control compound C5 for 2 hours and the stimulated with 10 nmol/L Prl for 30 minutes. Nuclear extracts were prepared and a gel EMSA was performed as previously described (Ahonen et al., Endocrinology 2002, 143:228-238; Nevalainen et al., Mol Endocrinol 2002, 16:1108-1124). Double stranded Stat5a/b-binding oligonucleotide probe (upper strand sequence: 5′-[…]-3′) (Boucheron et al., J Biol Chem (1998), 273:33936-33941) were end-labeled with 50 μCi of γ-^32P-ATP (5000 ci/mMol) and incubated (1 ng per reaction) with 10 μl of nuclear extracts in the final volume of 20 μl of the binding mixture (50 mM TrisHCl, pH 7.4, 25 mM MgCl2, 500 mM KCl, 5 mM DTT, 50% glycerol) and 1 μl of 1 mg/ml Poly d[(I:C)]. For a supershift control, the samples were preincubated with anti-Stat5a or anti-Stat5b antibody (Millipore) or NRS as indicated. Polyacrylamide gels (5%) containing 5% glycerol and 0.25×Tris-borate/EDTA were pre-run in 0.25×Tris-borate/EDTA buffer at 4-10° C. for 2-4 h at 300V. The gels were run at room temperature for 2.33 hours at 200 V, dried and exposed to x-ray films (X-Omat, Eastman Kodak Co.). […]

Bcl-xL = experiment: Expression of Stat5 target gene Bcl-xL in CWR22Rv1 and LNCaP cells (immunoblot); assay type: cell-based, human; settings: 25 μM over time
Protocol: Exponentially growing CWR22Rv1 and LNCaP cells were treated with N6BAP or the control compound C5 (Ctrl) for 48 h at concentrations indicated in FIG. 6 and whole cell lysates were immunoblotted with anti-cyclinD1 mAb. Exponentially growing CWR22Rv1 and LNCaP cells were treated with N6BAP or control compound C5 (Ctrl) at 25 μM for the periods of time indicated in FIG. 6, and whole cell lysates were immunoblotted with anti-cyclinD1 mAb or anti-Bcl-X1 pAb. Cell pellets were solubilized in lysis buffer [10 mM Tris-HCl (pH 7.6), 5 mM EDTA, 50 mM sodium chloride, 30 mM sodium pyrophosphate, 50 mM sodium fluoride, 1 mM sodium orthovanadate, 1% Triton X-100, 1 mM phenylmethylsulfonyl fluoride, 5 μg/ml aprotinin, 1 μg/ml pepstatin A, and […]], rotated end-over-end at 4° C. for 60 min, and insoluble material was pelleted at 12,000×g for 30 min at 4° C. The protein concentrations of clarified cell lysates were determined by simplified Bradford method (Bio-Rad Laboratories, Hercules, Calif.). The following primary antibodies were used for Western blotting, at the following concentrations: anti-β-actin pAb (1:4,000; Sigma), anti-cyclin D1 mAb (1:1000, BD Biosciences) and Bcl-xL pAb (1:1000, Cell Signaling, Danvers, Mass.).

prostate cancer cells = experiment: Induction of apoptotic death of prostate cancer cells (summary of FIGS. 9A-9E); assay type: cell-based, human
Protocol: as §1

Stat3 (Homo sapiens, UniProt P40763), sequence (P40763 whole entry, species assumed): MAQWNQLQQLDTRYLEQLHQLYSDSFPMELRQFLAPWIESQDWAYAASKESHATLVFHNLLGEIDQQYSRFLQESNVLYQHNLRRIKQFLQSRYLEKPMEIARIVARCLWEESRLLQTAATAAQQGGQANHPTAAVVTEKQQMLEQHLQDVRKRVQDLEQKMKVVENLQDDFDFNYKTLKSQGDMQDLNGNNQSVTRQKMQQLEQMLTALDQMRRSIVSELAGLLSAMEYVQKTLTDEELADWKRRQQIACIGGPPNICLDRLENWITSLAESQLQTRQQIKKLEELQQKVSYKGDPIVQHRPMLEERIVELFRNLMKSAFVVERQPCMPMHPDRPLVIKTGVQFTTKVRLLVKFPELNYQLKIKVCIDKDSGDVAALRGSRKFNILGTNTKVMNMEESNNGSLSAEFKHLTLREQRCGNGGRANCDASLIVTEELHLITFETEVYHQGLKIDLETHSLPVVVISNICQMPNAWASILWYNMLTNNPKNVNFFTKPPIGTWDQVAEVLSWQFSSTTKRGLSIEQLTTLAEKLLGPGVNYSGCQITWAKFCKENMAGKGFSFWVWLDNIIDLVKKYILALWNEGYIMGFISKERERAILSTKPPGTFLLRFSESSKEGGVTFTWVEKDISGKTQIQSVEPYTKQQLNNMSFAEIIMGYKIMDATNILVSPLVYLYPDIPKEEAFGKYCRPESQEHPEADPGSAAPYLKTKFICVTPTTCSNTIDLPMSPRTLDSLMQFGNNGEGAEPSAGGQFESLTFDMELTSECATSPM

`O=P(O)(O)OC[C@H]1O[C@@H](n2cnc3c(NCc4ccccc4)ncnc32)[C@H](O)[C@@H]1O` [N6BAP, N^6-benzyladenosine-5′-monophosphate] was tested, and the “nuclear translocation of IL-6-induced Stat3” value (Stat3 [1]) was “did not block translocation of Stat3 to the nucleus”, the “nuclear Stat3 in xenograft tumors” value (Stat3 [2]) was “without affecting nuclear Stat3” and the cell viability [3] was “did not affect the viability”. The “binding of Stat5a/b to DNA (EMSA)” value (Stat5a/b) was “inhibited binding of Stat5a/b to DNA”, the “expression of Bcl-xL” value (Bcl-xL) was “down-regulates expression” and the “treatment time required to induce prostate cancer cell apoptosis” value (prostate cancer cells) was “at least 48 hours”. For the same molecule, the “apoptotic death of prostate cancer cells” value (prostate cancer cells; CWR22Rv1, LNCaP, DU145) was “induces apoptotic death of prostate cancer cells”.

Source: patent US20160038526A1, “TREATMENT OF PROSTATE CANCER” (THOMAS JEFFERSON UNIVERSITY, priority 2012, published 2016)
